In ChEMBL document CHEMBL1134890, “Preparation of oxime dual NK(1)/NK(2) antagonists with reduced NK(3) affinity” (Bioorg Med Chem Lett, 2002) one finds Ki data, which are given here for 34 compounds.

Holding throughout (type): cell-based
One test has as its target Substance-P receptor (Homo sapiens, UniProt P25103). Description: Binding affinity against recombinant human tachykinin receptor 1 in CHO cells using [3H]-Sar SP as radioligand.
For a further test, the target named is T1, Neuromedin-K receptor (Homo sapiens, UniProt P29371).
T1 sequence (P29371 whole entry): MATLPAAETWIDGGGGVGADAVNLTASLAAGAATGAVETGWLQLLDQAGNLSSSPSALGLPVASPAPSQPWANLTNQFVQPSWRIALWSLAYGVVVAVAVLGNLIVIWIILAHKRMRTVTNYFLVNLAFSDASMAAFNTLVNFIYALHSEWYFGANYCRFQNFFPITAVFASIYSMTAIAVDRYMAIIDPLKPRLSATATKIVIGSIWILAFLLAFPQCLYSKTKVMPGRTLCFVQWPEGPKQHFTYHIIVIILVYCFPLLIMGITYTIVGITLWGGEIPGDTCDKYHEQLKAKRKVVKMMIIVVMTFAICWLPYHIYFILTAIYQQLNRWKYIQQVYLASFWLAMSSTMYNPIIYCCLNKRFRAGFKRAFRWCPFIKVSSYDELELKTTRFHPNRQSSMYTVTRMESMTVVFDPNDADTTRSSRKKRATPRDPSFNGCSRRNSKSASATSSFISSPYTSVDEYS
The test can be described thus: Binding affinity against recombinant human tachykinin receptor 3 in CHO cells using [125I][MePhe]-NKB as radioligand.

For a further test, the target named is T2, Substance-K receptor (Homo sapiens, UniProt P21452).
T2 sequence (P21452 whole entry): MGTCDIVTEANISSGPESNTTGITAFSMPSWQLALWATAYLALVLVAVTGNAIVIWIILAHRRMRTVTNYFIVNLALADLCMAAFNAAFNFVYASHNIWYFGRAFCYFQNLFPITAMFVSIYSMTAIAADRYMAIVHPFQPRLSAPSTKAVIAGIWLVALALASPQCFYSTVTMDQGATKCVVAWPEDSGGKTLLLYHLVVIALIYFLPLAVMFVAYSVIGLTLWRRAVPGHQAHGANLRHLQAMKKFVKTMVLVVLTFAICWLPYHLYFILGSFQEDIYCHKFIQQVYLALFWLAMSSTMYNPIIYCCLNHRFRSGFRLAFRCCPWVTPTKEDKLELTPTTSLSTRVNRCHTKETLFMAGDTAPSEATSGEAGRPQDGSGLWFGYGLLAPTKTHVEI
Description: Binding affinity against recombinant human tachykinin receptor 2 in CHO cells using [3H]-NKA as radioligand.

Substance-P receptor, sequence (P25103 whole entry): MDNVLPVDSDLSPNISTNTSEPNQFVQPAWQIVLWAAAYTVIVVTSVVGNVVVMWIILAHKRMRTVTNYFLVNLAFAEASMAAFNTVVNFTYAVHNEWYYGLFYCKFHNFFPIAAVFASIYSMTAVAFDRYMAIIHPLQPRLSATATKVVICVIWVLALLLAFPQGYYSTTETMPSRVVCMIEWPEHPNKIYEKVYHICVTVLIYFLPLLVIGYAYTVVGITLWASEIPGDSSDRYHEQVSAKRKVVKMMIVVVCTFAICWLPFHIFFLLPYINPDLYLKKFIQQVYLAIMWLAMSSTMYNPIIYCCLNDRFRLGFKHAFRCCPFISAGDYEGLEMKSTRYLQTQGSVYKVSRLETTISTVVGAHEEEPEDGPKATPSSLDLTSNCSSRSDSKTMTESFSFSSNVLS

With `CO/N=C(\CN(C)C(=O)c1cc(Cl)cc(Cl)c1)[C@H](CCN1CCC(N2CCCN(C)C2=O)CC1)c1ccc(Cl)c(Cl)c1`, the inhibition constant Ki on Substance-P receptor was 0.4 nM; on Neuromedin-K receptor, 0.8 nM; on Substance-K receptor, 0.7 nM.

For the compound `CO/N=C(\CN(C)C(=O)c1cc(Cl)cc(Cl)c1)[C@H](CCN1CCC(N2CCCN(CC(N)=O)C2=O)CC1)c1ccc(Cl)c(Cl)c1`, the Ki at Substance-P receptor came to 0.3 nM; on Neuromedin-K receptor, 0.4 nM; on Substance-K receptor, 0.2 nM.

Consider `CO/N=C(\CN(C)C(=O)c1cc(Cl)cc(Cl)c1)[C@H](CCN1CCC(n2c(=O)n(CC(=O)O)c3ccccc32)CC1)c1ccc(Cl)c(Cl)c1`, for which the Ki was found to be 1.3 nM at Substance-P receptor, 11 nM on Neuromedin-K receptor and 1.7 nM at Substance-K receptor.

As for `CO/N=C(\CN(C)C(=O)c1cc(Cl)cc(Cl)c1)[C@H](CCN1CCC(N2CCCN(CC(=O)OCc3ccccc3)C2=O)CC1)c1ccc(Cl)c(Cl)c1`, the Ki on Substance-P receptor is 1 nM; on Neuromedin-K receptor, 11.8 nM; on Substance-K receptor it was 1.2 nM.

Consider `CNC(=O)CN1CCCN(C2CCN(CC[C@@H](/C(CN(C)C(=O)c3cc(Cl)cc(Cl)c3)=N/OC)c3ccc(Cl)c(Cl)c3)CC2)C1=O`, for which the Ki came out at 0.9 nM at Substance-P receptor, 1.3 nM on Neuromedin-K receptor and 1.2 nM at Substance-K receptor.

For the compound `CO/N=C(\CN(C)C(=O)c1cc(Cl)cc(Cl)c1)[C@H](CCN1CCC(N2CCCN(Cc3ccsc3)C2=O)CC1)c1ccc(Cl)c(Cl)c1`, the results for the Ki at Substance-P receptor, on Neuromedin-K receptor and on Substance-K receptor were 2.4 nM, 3.2 nM and 1.2 nM, respectively.

Take `CNC(=O)C[C@H]1CCCN(C2CCN(CC[C@@H](/C(CN(C)C(=O)c3cc(Cl)cc(Cl)c3)=N/OC)c3ccc(Cl)c(Cl)c3)CC2)C1=O`: the Ki on Substance-P receptor was 1.3 nM; at Neuromedin-K receptor it was 0.3 nM; at Substance-K receptor, 0.4 nM.

As to `CCN(C/C(=N\OC)[C@H](CCN1CCC(n2c(=O)n(CC(=O)NCCOC)c3ccccc32)CC1)c1ccc(Cl)c(Cl)c1)C(=O)c1cc(Cl)cc(Cl)c1`, the values for the Ki on Substance-P receptor, on Neuromedin-K receptor and on Substance-K receptor were 1.9 nM, 945 nM and 4.1 nM, respectively.

On to `CO/N=C(\CN(C)C(=O)c1cc(Cl)cc(Cl)c1)[C@H](CCN1CCC(n2c(=O)n(CC(=O)OC)c3ccccc32)CC1)c1ccc(Cl)c(Cl)c1`, for which the Ki on Substance-P receptor was 1.3 nM; on Neuromedin-K receptor, 29 nM; at Substance-K receptor it was 1.8 nM.

As to `CO/N=C(\CN(C(=O)c1cc(Cl)cc(Cl)c1)C1CC1)[C@H](CCN1CCC(n2c(O)nc3ccccc32)CC1)c1ccc(Cl)c(Cl)c1`, the figures for the Ki at Substance-P receptor, at Neuromedin-K receptor and on Substance-K receptor were 157 nM, 103 nM and 2.5 nM, respectively.

Regarding `CO/N=C(\CN(CCF)C(=O)c1cc(Cl)cc(Cl)c1)[C@H](CCN1CCC(n2c(=O)n(CC(=O)O)c3ccccc32)CC1)c1ccc(Cl)c(Cl)c1`, the Ki on Substance-P receptor amounted to 1.2 nM; on Neuromedin-K receptor it was 304 nM; at Substance-K receptor it was 3.1 nM.

In the case of `CCN(C/C(=N\OC)[C@H](CCN1CCC(n2c(=O)n(CC(=O)O)c3ccccc32)CC1)c1ccc(Cl)c(Cl)c1)C(=O)c1cc(Cl)cc(Cl)c1`, the Ki at Substance-P receptor was 2.4 nM; at Neuromedin-K receptor, 176 nM; on Substance-K receptor, 5.2 nM.

As to `CO/N=C(\CN(C)C(=O)c1cc(Cl)cc(Cl)c1)[C@H](CCN1CCC(N2CCCN(CCNS(C)(=O)=O)C2=O)CC1)c1ccc(Cl)c(Cl)c1`, the Ki was 0.6 nM at Substance-P receptor, 0.4 nM on Neuromedin-K receptor and 0.5 nM on Substance-K receptor.

Consider `CCOC(=O)[C@@H](Cc1ccc(O)cc1)N1CCCN(C2CCN(CC[C@@H](/C(CN(C)C(=O)c3cc(Cl)cc(Cl)c3)=N/OC)c3ccc(Cl)c(Cl)c3)CC2)C1=O`, for which the Ki at Substance-P receptor was determined as 1.6 nM; at Neuromedin-K receptor, 10.9 nM; on Substance-K receptor, 1.2 nM.

In the case of `CO/N=C(\CN(C)C(=O)c1cc(Cl)cc(Cl)c1)[C@H](CCN1CCC(N2CCCN(Cc3nnn[nH]3)C2=O)CC1)c1ccc(Cl)c(Cl)c1`, at Neuromedin-K receptor, the Ki was 2 nM.

For the compound `CO/N=C(\CN(C)C(=O)c1cc(Cl)cc(Cl)c1)[C@H](CCN1CCC(N2CCCN(CC(C)(C)O)C2=O)CC1)c1ccc(Cl)c(Cl)c1`, the Ki on Substance-K receptor is 0.8 nM.

In the case of `CO/N=C(\CN(CCF)C(=O)c1cc(Cl)cc(Cl)c1)[C@H](CCN1CCC(n2c(O)nc3ccccc32)CC1)c1ccc(Cl)c(Cl)c1`, the values for the Ki at Substance-P receptor, on Neuromedin-K receptor and on Substance-K receptor were 3.2 nM, 231 nM and 4.9 nM, respectively.

In the case of `CCN(C/C(=N\OC)[C@H](CCN1CCC(n2c(=O)n(CCOC)c3ccccc32)CC1)c1ccc(Cl)c(Cl)c1)C(=O)c1cc(Cl)cc(Cl)c1`, the Ki at Substance-P receptor turned out to be 2 nM; at Neuromedin-K receptor, 572 nM; on Substance-K receptor, 4 nM.

Regarding `CO/N=C(\CN(C)C(=O)c1cc(Cl)cc(Cl)c1)[C@H](CCN1CCC(N2CCCN(C(C)(C)C(N)=O)C2=O)CC1)c1ccc(Cl)c(Cl)c1`, the Ki on Substance-P receptor was 0.8 nM; on Neuromedin-K receptor it was 0.3 nM; at Substance-K receptor, 0.4 nM.

In the case of `CO/N=C(\CN(C)C(=O)c1cc(Cl)cc(Cl)c1)[C@H](CCN1CCC(N2CCCN(N3CCOCC3)C2=O)CC1)c1ccc(Cl)c(Cl)c1`, the results for the Ki at Substance-P receptor, on Neuromedin-K receptor and on Substance-K receptor were 0.8 nM, 0.5 nM and 0.9 nM, respectively.

Consider `CO/N=C(\CN(C)C(=O)c1cc(Cl)cc(Cl)c1)[C@H](CCN1CCC(N2CCCN(O)C2=O)CC1)c1ccc(Cl)c(Cl)c1`, for which the inhibitory constant (Ki) at Substance-P receptor amounted to 1 nM; on Neuromedin-K receptor it was 0.7 nM; at Substance-K receptor, 0.7 nM.

Regarding `CO/N=C(\CN(C)C(=O)c1cc(Cl)cc(Cl)c1)[C@H](CCN1CCC(N2CCCN(CC(=N)NO)C2=O)CC1)c1ccc(Cl)c(Cl)c1`, the Ki at Substance-P receptor worked out at 0.6 nM; on Neuromedin-K receptor, 0.5 nM; at Substance-K receptor, 0.8 nM.

`CCN(C/C(=N\OC)[C@H](CCN1CCC(n2c(=O)n(CC#N)c3ccccc32)CC1)c1ccc(Cl)c(Cl)c1)C(=O)c1cc(Cl)cc(Cl)c1`: the Ki at Substance-P receptor worked out at 2.3 nM; at Neuromedin-K receptor, 674 nM; on Substance-K receptor it was 2.5 nM.

For the compound `CCN(C/C(=N\OC)[C@H](CCN1CCC(n2c(=O)[nH]c3ccccc32)CC1)c1ccc(Cl)c(Cl)c1)C(=O)c1cc(Cl)cc(Cl)c1`, the values for the Ki at Substance-P receptor, at Neuromedin-K receptor and on Substance-K receptor were 2.5 nM, 97 nM and 2.6 nM, respectively.

As to `CO/N=C(\CN(C)C(=O)c1cc(Cl)cc(Cl)c1)[C@H](CCN1CCC(N2CCCN(Cc3ccccn3)C2=O)CC1)c1ccc(Cl)c(Cl)c1`, the Ki on Substance-P receptor amounted to 0.7 nM; at Neuromedin-K receptor, 0.8 nM; at Substance-K receptor it was 0.7 nM.

For `CO/N=C(\CN(C)C(=O)c1cc(Cl)cc(Cl)c1)[C@H](CCN1CCC(n2c(=O)[nH]c3ccccc32)CC1)c1ccc(Cl)c(Cl)c1`, the Ki on Neuromedin-K receptor came out at 10 nM.

As for `CO/N=C(\CN(C)C(=O)c1cc(Cl)cc(Cl)c1)[C@H](CCN1CCC(N2CCCN(c3ccccn3)C2=O)CC1)c1ccc(Cl)c(Cl)c1`, the Ki amounted to 1.9 nM on Substance-P receptor, 0.5 nM at Neuromedin-K receptor and 0.5 nM at Substance-K receptor.

In the case of `CCNC(=O)Cn1c(=O)n(C2CCN(CC[C@@H](/C(CN(CC)C(=O)c3cc(Cl)cc(Cl)c3)=N/OC)c3ccc(Cl)c(Cl)c3)CC2)c2ccccc21`, the inhibition constant (Ki) was 3 nM at Substance-P receptor, 281 nM at Neuromedin-K receptor and 3.6 nM on Substance-K receptor.

For the compound `CO/N=C(\CN(C)C(=O)c1cc(Cl)cc(Cl)c1)[C@H](CCN1CCC(N2CCCN(Cc3ccoc3)C2=O)CC1)c1ccc(Cl)c(Cl)c1`, the Ki on Substance-P receptor amounted to 1.1 nM; on Neuromedin-K receptor it was 2.2 nM; on Substance-K receptor it was 1.1 nM.

Consider `CCN(C/C(=N\OC)[C@H](CCN1CCC(n2c(=O)n(Cc3ccccn3)c3ccccc32)CC1)c1ccc(Cl)c(Cl)c1)C(=O)c1cc(Cl)cc(Cl)c1`, for which the Ki on Substance-P receptor is 2.7 nM; on Neuromedin-K receptor, 312 nM; at Substance-K receptor it was 2.8 nM.

With `CCN(C/C(=N\OC)[C@H](CCN1CCC(n2c(=O)n(CC(N)=O)c3ccccc32)CC1)c1ccc(Cl)c(Cl)c1)C(=O)c1cc(Cl)cc(Cl)c1`, the Ki on Substance-P receptor was 2.4 nM; on Neuromedin-K receptor it was 167 nM; at Substance-K receptor it was 4.8 nM.

On to `CO/N=C(\CN(C)C(=O)c1cc(Cl)cc(Cl)c1)[C@H](CCN1CCC(n2c(=O)n(C)c3ccccc32)CC1)c1ccc(Cl)c(Cl)c1`, for which the Ki at Neuromedin-K receptor was 20 nM.

Turning to `CO/N=C(\CN(C)C(=O)c1cc(Cl)cc(Cl)c1)[C@H](CCN1CCC(N2CCCN([C@H](CO)C(N)=O)C2=O)CC1)c1ccc(Cl)c(Cl)c1`, the Ki on Substance-P receptor is 0.6 nM; at Neuromedin-K receptor, 0.3 nM; at Substance-K receptor it was 0.5 nM.

For the compound `CO/N=C(\CN(C)C(=O)c1cc(Cl)cc(Cl)c1)[C@H](CCN1CCC(N2CCCN(C(C)C)C2=O)CC1)c1ccc(Cl)c(Cl)c1`, the values for the Ki on Substance-P receptor, on Neuromedin-K receptor and on Substance-K receptor were 0.9 nM, 0.6 nM and 0.8 nM, respectively.

One may read the Ki as the dissociation constant of the complex between target and ligand, obtained from inhibition or displacement.
